# Source: patent US4251444A, “Thiazepino-[4,3-b]-isoquinoline-1,5-dione derivatives and precursors” (American Home Products Corporation, priority 1980, dated 1981)
# System: male spontaneously hypertensive rats
# Test: blood pressure lowering, systolic pressure by Decker Caudal Plethysmograph
# Assay type: in vivo
# Conditions: four hours after administration of a 50 milligram dose; standard experimental rat, oral
# Protocol: The compounds tested were administered orally and blood pressure was read prior to and at 1.5, 4 and 24 hours after drug administration.
smiles,measurement,value
"CC(CSC(=O)c1ccccc1)C(=O)N1Cc2ccccc2CC1C(=O)O (single isomer, unassigned) [Example 4, 2-(3-Benzoylthio-2-methylpropanoyl)-1,2,3,4-tetrahydroisoquinoline-3-carboxylic acid]",reduction of blood pressure,29 millimeters
